Test results as given in PubChem BioAssay AID602353 (The Scripps Research Institute Molecular Screening Center, 2012).
Active and inactive are the calls of the source. The rule behind the calls is not given here.

Tests used:
Assay in all cases: in vivo serine hydrolase selectivity profiling, late-stage follow-up, in vivo study for DAGLb inhibitor project, ABPP MudPIT, LC-MS, mouse (AID 602353)
[1] = target: Acyl-protein thioesterase 1 (Mus musculus) (UniProt P97823); details: mouse tissue ABPP MudPIT, FP-probe spectral counts; Lypla1; stronger effect = lower value
Chain of Acyl-protein thioesterase 1 (Mus musculus) (P97823 whole entry, looked up): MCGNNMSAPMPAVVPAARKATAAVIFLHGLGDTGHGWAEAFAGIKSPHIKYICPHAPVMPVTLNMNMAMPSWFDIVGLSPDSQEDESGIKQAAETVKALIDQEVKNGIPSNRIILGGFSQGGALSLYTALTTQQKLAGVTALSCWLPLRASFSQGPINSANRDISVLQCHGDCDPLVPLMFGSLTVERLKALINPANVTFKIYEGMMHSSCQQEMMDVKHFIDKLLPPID

Prcp = details: mouse tissue ABPP MudPIT, FP-probe spectral counts, stronger effect = lower value
Pafah2 = details: mouse tissue ABPP MudPIT, FP-probe spectral counts, vehicle vs compound significance, stronger effect = lower value
Lpl = details: mouse tissue ABPP MudPIT, FP-probe spectral counts, stronger effect = lower value
Ctsa = details: mouse tissue ABPP MudPIT, FP-probe spectral counts, stronger effect = lower value
Pafah1b3 = details: mouse tissue ABPP MudPIT, FP-probe spectral counts, stronger effect = lower value
Fam108b = details: mouse tissue ABPP MudPIT, FP-probe spectral counts, stronger effect = lower value
Dpp7 = details: mouse tissue ABPP MudPIT, FP-probe spectral counts, stronger effect = lower value
Pafah1b2 = details: mouse tissue ABPP MudPIT, FP-probe spectral counts, stronger effect = lower value
Abhd11 = details: mouse tissue ABPP MudPIT, FP-probe spectral counts, stronger effect = lower value
Lypla1 = details: mouse tissue ABPP MudPIT, FP-probe spectral counts, vehicle vs compound significance, stronger effect = lower value
[2] = target: Palmitoyl-protein thioesterase ABHD10, mitochondrial (Mus musculus) (UniProt Q6PE15); details: mouse tissue ABPP MudPIT, FP-probe spectral counts, stronger effect = lower value
Chain of Palmitoyl-protein thioesterase ABHD10, mitochondrial (Mus musculus) (Q6PE15 whole entry, looked up): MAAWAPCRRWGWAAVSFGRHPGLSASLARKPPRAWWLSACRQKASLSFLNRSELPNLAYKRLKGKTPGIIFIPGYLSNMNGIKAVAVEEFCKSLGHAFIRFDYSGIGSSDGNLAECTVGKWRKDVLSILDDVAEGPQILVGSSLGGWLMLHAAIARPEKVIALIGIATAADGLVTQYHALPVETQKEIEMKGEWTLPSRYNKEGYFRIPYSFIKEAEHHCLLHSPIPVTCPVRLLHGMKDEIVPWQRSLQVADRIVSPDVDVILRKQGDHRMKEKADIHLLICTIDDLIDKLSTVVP

[3] = target: Platelet-activating factor acetylhydrolase (Mus musculus) (UniProt Q60963); details: mouse tissue ABPP MudPIT, FP-probe spectral counts; Pla2g7; stronger effect = lower value
Chain of Platelet-activating factor acetylhydrolase (Mus musculus) (Q60963 whole entry, looked up): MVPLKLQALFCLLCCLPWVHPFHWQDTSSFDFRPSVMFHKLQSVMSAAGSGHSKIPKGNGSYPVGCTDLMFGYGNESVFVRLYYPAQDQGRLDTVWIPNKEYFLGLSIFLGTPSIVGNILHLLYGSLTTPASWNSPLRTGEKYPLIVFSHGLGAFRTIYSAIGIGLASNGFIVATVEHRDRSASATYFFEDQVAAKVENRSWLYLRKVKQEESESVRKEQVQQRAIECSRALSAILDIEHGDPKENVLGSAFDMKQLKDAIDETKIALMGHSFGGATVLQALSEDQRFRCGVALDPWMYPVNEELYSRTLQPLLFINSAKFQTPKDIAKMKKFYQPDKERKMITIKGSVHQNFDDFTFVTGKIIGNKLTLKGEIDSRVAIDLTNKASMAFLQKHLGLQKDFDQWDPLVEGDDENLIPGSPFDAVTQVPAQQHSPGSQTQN

Parl = details: mouse tissue ABPP MudPIT, FP-probe spectral counts, stronger effect = lower value
Acot2 = details: mouse tissue ABPP MudPIT, FP-probe spectral counts, stronger effect = lower value
Pnpla6 = details: mouse tissue ABPP MudPIT, FP-probe spectral counts, stronger effect = lower value
Abhd6 = details: mouse tissue ABPP MudPIT, FP-probe spectral counts, vehicle vs compound significance, stronger effect = lower value
[4] = target: Platelet-activating factor acetylhydrolase 2, cytoplasmic (Mus musculus) (UniProt Q8VDG7); details: mouse tissue ABPP MudPIT, FP-probe spectral counts; Pafah2; stronger effect = lower value
Chain of Platelet-activating factor acetylhydrolase 2, cytoplasmic (Mus musculus) (Q8VDG7 whole entry, looked up): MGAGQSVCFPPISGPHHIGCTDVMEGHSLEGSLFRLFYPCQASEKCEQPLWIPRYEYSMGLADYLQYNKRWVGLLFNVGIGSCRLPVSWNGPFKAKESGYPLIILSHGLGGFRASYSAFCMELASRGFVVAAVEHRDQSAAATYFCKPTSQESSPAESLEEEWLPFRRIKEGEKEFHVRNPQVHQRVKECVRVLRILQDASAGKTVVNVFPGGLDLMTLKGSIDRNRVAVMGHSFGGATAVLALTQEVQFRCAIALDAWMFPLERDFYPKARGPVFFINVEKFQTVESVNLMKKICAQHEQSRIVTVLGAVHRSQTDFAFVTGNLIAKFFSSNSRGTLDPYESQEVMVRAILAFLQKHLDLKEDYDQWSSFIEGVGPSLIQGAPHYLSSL

Dpp9 = details: mouse tissue ABPP MudPIT, FP-probe spectral counts, stronger effect = lower value
[5] = target: Diacylglycerol lipase-beta (Mus musculus) (UniProt Q91WC9); details: mouse tissue ABPP MudPIT, FP-probe spectral counts; Daglb; stronger effect = lower value
Chain of Diacylglycerol lipase-beta (Mus musculus) (Q91WC9 whole entry, looked up): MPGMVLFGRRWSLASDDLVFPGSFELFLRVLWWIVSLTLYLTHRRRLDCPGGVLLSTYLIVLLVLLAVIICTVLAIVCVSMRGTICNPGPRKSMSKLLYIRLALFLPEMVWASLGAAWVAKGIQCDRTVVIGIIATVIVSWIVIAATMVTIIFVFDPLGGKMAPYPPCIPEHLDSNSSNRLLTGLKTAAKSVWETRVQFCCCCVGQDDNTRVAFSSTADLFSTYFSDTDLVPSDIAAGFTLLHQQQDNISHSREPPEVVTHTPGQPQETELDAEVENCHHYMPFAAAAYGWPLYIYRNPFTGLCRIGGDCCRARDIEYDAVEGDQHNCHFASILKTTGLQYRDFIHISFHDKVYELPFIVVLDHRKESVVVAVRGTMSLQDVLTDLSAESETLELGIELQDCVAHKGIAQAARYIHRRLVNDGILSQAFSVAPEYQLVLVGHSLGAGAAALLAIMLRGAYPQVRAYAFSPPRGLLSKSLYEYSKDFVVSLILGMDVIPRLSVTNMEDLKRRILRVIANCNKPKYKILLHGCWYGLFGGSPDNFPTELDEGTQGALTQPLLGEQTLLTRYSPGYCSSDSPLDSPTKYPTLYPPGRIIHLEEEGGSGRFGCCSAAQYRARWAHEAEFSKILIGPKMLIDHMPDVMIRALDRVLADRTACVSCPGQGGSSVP

Ctsg = details: mouse tissue ABPP MudPIT, FP-probe spectral counts, stronger effect = lower value
Acot1 = details: mouse tissue ABPP MudPIT, FP-probe spectral counts, stronger effect = lower value
Abhd10 = details: mouse tissue ABPP MudPIT, FP-probe spectral counts, vehicle vs compound significance, stronger effect = lower value
Kiaa1363 = details: mouse tissue ABPP MudPIT, FP-probe spectral counts, stronger effect = lower value
Pnpla8 = details: mouse tissue ABPP MudPIT, FP-probe spectral counts, stronger effect = lower value
Lypla2 = details: mouse tissue ABPP MudPIT, FP-probe spectral counts, stronger effect = lower value
Abhd12 = details: mouse tissue ABPP MudPIT, FP-probe spectral counts, stronger effect = lower value
Pnpla7 = details: mouse tissue ABPP MudPIT, FP-probe spectral counts, stronger effect = lower value
Daglb = details: mouse tissue ABPP MudPIT, FP-probe spectral counts, vehicle vs compound significance, stronger effect = lower value
Pla2g7 = details: mouse tissue ABPP MudPIT, FP-probe spectral counts, vehicle vs compound significance, stronger effect = lower value
Lipe = details: mouse tissue ABPP MudPIT, FP-probe spectral counts, stronger effect = lower value
[6] = target: Monoacylglycerol lipase ABHD6 (Mus musculus) (UniProt Q8R2Y0); details: mouse tissue ABPP MudPIT, FP-probe spectral counts, stronger effect = lower value
Chain of Monoacylglycerol lipase ABHD6 (Mus musculus) (Q8R2Y0 whole entry, looked up): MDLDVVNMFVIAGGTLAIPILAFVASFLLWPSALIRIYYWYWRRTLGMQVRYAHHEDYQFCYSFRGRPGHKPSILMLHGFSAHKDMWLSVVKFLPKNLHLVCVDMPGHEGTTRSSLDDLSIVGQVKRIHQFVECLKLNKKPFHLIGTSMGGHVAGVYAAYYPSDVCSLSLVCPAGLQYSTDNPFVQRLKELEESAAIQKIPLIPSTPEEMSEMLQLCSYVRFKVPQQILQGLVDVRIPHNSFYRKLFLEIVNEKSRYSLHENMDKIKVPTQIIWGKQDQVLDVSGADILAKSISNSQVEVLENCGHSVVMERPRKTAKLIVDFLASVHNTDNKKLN

Dpp4 = details: mouse tissue ABPP MudPIT, FP-probe spectral counts, stronger effect = lower value
Fasn = details: mouse tissue ABPP MudPIT, FP-probe spectral counts, stronger effect = lower value
Dpp8 = details: mouse tissue ABPP MudPIT, FP-probe spectral counts, stronger effect = lower value
Iah1 = details: mouse tissue ABPP MudPIT, FP-probe spectral counts, stronger effect = lower value
Elane = details: mouse tissue ABPP MudPIT, FP-probe spectral counts, stronger effect = lower value
Pla2g15 = details: mouse tissue ABPP MudPIT, FP-probe spectral counts, stronger effect = lower value
Magl = details: mouse tissue ABPP MudPIT, FP-probe spectral counts, stronger effect = lower value
Aoah = details: mouse tissue ABPP MudPIT, FP-probe spectral counts, stronger effect = lower value
Apeh = details: mouse tissue ABPP MudPIT, FP-probe spectral counts, stronger effect = lower value
[7] = vehicle vs compound significance

COc1ccccc1-c1ccc(-c2cn(C(=O)N3CCCCC3Cc3ccccc3)nn2)cc1 (stereo not given)
spectral counts, test compound [1]: 84 (inactive) | spectral counts, test compound (Prcp): 133 (inactive) | P value (Prcp; [7]): 0.736 | P value (Pafah2): 0.491 | spectral counts, test compound (Lpl): 20.3 (inactive) | P value (Lpl; [7]): 0.81 | spectral counts, test compound (Ctsa): 57.7 (inactive) | P value (Ctsa; [7]): 0.562 | spectral counts, test compound (Pafah1b3): 35 (inactive) | P value (Pafah1b3; [7]): 0.532 | spectral counts, test compound (Fam108b): 24 (inactive) | P value (Fam108b; [7]): 0.757 | spectral counts, test compound (Dpp7): 61.7 (inactive) | P value (Dpp7; [7]): 0.138 | spectral counts, test compound (Pafah1b2): 66 (inactive) | P value (Pafah1b2; [7]): 0.317 | spectral counts, test compound (Abhd11): 23 (inactive) | P value (Abhd11; [7]): 0.167 | P value (Lypla1): 0.819 | spectral counts, test compound [2]: 22.3 (inactive) | spectral counts, test compound [3]: 97.3 (inactive) | spectral counts, test compound (Parl): 20 (inactive) | P value (Parl; [7]): 0.382 | spectral counts, test compound (Acot2): 85 (inactive) | P value (Acot2; [7]): 0.094 | spectral counts, test compound (Pnpla6): 11.3 (inactive) | P value (Pnpla6; [7]): 0.696 | P value (Abhd6): 0.033 | spectral counts, test compound [4]: 33.7 (inactive) | spectral counts, test compound (Dpp9): 134 (inactive) | P value (Dpp9; [7]): 0.213 | spectral counts, test compound [5]: 0 | spectral counts, test compound (Ctsg): 283 (inactive) | P value (Ctsg; [7]): 0.854 | spectral counts, test compound (Acot1): 48.3 (inactive) | P value (Acot1; [7]): 0.802 | P value (Abhd10): 0.961 | spectral counts, test compound (Kiaa1363): 206 (inactive) | P value (Kiaa1363; [7]): 0.156 | spectral counts, test compound (Pnpla8): 3.67 (inactive) | P value (Pnpla8; [7]): 0.35 | spectral counts, test compound (Lypla2): 118 (inactive) | P value (Lypla2; [7]): 0.278 | spectral counts, test compound (Abhd12): 64.7 (inactive) | P value (Abhd12; [7]): 0.512 | spectral counts, test compound (Pnpla7): 34.3 (inactive) | P value (Pnpla7; [7]): 0.536 | P value (Daglb): 0.004 | P value (Pla2g7): 0.996 | spectral counts, test compound (Lipe): 76 (inactive) | P value (Lipe; [7]): 0.299 | spectral counts, test compound [6]: 0 | spectral counts, test compound (Dpp4): 146 (inactive) | P value (Dpp4; [7]): 0.754 | spectral counts, test compound (Fasn): 178 (inactive) | P value (Fasn; [7]): 0.517 | spectral counts, test compound (Dpp8): 31.3 (inactive) | P value (Dpp8; [7]): 0.949 | spectral counts, test compound (Iah1): 22.3 (inactive) | P value (Iah1; [7]): 0.127 | spectral counts, test compound (Elane): 120 (inactive) | P value (Elane; [7]): 0.837 | spectral counts, test compound (Pla2g15): 15 (inactive) | P value (Pla2g15; [7]): 0.135 | spectral counts, test compound (Magl): 5.67 (inactive) | P value (Magl; [7]): 0.368 | spectral counts, test compound (Aoah): 35.7 (inactive) | P value (Aoah; [7]): 0.389 | spectral counts, test compound (Apeh): 252 (inactive) | P value (Apeh; [7]): 0.731
